Measurements as given in paper PMC7026418, “The kinase polypharmacology landscape of clinical PARP inhibitors” (Scientific Reports, 2020).
Like-named read-outs stand apart in the source and are kept apart here.

Assays:
Test in all cases: biochemical
Design in all cases: DiscoveRx KINOMEscan active site-directed competition binding; percent of control kinase bound to immobilised ligand
[1] = target: T1, MST2 (Homo sapiens, UniProt Q13188)
T1 construct: gene STK3
T1 sequence (Q13188 1-491): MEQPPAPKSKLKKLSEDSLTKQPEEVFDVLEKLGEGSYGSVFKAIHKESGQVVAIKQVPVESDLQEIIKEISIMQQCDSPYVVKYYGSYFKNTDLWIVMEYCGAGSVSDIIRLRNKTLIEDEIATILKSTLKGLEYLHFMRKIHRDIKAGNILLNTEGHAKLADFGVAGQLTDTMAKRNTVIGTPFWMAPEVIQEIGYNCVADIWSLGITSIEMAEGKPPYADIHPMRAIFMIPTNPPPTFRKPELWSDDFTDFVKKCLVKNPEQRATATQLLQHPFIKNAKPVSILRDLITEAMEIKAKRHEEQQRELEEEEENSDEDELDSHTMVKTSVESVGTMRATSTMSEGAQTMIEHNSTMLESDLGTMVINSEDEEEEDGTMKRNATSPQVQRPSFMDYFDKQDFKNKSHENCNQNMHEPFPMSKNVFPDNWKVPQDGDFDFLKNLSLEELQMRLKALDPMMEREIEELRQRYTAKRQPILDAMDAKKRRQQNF

[2] = target: T2, PIP5K2B (Homo sapiens, UniProt P78356)
T2 construct: gene PIP4K2B
T2 sequence (P78356 1-416): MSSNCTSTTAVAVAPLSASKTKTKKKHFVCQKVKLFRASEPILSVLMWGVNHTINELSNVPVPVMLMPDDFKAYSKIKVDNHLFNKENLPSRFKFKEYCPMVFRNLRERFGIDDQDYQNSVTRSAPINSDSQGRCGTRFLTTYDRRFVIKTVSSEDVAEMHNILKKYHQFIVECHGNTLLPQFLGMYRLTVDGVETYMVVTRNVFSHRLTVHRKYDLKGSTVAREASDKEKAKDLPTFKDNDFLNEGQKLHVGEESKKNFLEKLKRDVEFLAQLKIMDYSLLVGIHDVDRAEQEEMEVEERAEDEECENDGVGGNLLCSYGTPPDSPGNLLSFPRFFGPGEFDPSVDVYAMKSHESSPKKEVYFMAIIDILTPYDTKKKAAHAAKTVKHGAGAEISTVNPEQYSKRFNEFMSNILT

[3] = target: PIK3CA(M1043I) (Homo sapiens, UniProt P42336, M1043I)
[4] = target: MARK2 (Homo sapiens, UniProt Q7KZI7)
[5] = target: BTK (Homo sapiens, UniProt Q06187)
[6] = target: T3, TBK1 (Homo sapiens, UniProt Q9UHD2)
T3 sequence (Q9UHD2 1-729): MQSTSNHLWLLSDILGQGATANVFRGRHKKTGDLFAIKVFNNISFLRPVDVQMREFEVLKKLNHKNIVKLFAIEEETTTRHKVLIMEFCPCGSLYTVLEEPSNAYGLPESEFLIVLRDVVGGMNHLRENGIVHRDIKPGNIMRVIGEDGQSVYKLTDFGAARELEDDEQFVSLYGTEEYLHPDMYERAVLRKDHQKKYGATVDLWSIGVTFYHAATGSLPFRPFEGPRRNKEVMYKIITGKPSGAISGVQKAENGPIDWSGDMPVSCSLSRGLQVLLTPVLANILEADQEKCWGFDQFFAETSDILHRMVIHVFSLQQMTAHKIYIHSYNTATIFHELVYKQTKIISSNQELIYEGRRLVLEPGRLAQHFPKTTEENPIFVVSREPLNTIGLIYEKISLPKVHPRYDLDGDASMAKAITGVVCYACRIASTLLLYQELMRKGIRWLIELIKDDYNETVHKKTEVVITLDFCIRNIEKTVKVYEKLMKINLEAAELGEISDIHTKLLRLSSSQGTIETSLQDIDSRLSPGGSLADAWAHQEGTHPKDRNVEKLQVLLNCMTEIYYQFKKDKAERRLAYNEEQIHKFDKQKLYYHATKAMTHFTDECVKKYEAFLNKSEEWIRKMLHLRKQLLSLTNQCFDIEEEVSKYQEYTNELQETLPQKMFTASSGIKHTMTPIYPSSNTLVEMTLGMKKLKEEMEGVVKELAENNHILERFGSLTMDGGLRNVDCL

[7] = target: T4, JNK3 (Homo sapiens, UniProt P53779)
T4 construct: gene MAPK10

[8] = target: TNK2 (Homo sapiens, UniProt Q07912)
[9] = target: SLK (Homo sapiens, UniProt Q9H2G2)
[10] = target: RAF1 (Homo sapiens, UniProt P04049)
[11] = target: HIPK1 (Homo sapiens, UniProt Q86Z02)
[12] = target: T5, MST4 (Homo sapiens, UniProt Q9P289)
T5 construct: gene STK26

[13] = target: PLK1 (Homo sapiens, UniProt P53350)
[14] = read-out: Niraparib (MK-4827) / %Ctrl @ 10000nM
[15] = read-out: Olaparib / %Ctrl @ 10000nM
[16] = read-out: Rucaparib / %Ctrl @ 10000nM, binding competition, % of control
[17] = read-out: Talazoparib (BMN 673) / %Ctrl @ 10000nM

Sequence of SLK (Q9H2G2 whole entry): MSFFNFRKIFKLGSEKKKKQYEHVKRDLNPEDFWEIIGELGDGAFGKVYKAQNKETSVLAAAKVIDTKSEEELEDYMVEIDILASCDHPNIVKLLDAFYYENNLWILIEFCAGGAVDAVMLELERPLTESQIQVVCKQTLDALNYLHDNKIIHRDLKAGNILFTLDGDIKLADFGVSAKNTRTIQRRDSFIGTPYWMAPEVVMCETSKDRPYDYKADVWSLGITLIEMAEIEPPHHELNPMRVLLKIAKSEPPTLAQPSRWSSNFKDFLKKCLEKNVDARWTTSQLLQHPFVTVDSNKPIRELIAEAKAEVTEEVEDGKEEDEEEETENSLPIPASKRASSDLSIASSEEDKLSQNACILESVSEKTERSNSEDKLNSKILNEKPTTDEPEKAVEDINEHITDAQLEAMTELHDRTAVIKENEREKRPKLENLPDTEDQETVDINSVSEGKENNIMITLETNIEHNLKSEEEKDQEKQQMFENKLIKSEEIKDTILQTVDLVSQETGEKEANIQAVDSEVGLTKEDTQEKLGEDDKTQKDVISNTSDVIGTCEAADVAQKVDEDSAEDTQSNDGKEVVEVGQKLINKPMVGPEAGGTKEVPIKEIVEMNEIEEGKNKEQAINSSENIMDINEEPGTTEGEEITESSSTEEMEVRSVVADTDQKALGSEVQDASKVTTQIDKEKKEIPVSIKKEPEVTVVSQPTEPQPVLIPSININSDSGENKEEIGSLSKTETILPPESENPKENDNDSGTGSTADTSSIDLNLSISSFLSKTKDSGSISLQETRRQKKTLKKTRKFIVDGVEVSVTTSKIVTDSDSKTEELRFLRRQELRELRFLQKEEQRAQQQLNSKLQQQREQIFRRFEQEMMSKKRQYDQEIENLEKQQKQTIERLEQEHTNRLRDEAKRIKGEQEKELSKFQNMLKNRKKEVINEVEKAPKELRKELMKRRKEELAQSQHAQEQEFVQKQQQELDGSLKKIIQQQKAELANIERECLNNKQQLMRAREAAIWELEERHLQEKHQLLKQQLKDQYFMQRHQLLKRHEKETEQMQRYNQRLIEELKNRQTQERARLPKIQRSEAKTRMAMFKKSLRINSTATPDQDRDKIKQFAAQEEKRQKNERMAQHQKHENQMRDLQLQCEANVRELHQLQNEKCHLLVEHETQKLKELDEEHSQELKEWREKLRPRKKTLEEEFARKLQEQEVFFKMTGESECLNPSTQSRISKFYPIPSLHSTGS
Sequence of TNK2 (Q07912 whole entry): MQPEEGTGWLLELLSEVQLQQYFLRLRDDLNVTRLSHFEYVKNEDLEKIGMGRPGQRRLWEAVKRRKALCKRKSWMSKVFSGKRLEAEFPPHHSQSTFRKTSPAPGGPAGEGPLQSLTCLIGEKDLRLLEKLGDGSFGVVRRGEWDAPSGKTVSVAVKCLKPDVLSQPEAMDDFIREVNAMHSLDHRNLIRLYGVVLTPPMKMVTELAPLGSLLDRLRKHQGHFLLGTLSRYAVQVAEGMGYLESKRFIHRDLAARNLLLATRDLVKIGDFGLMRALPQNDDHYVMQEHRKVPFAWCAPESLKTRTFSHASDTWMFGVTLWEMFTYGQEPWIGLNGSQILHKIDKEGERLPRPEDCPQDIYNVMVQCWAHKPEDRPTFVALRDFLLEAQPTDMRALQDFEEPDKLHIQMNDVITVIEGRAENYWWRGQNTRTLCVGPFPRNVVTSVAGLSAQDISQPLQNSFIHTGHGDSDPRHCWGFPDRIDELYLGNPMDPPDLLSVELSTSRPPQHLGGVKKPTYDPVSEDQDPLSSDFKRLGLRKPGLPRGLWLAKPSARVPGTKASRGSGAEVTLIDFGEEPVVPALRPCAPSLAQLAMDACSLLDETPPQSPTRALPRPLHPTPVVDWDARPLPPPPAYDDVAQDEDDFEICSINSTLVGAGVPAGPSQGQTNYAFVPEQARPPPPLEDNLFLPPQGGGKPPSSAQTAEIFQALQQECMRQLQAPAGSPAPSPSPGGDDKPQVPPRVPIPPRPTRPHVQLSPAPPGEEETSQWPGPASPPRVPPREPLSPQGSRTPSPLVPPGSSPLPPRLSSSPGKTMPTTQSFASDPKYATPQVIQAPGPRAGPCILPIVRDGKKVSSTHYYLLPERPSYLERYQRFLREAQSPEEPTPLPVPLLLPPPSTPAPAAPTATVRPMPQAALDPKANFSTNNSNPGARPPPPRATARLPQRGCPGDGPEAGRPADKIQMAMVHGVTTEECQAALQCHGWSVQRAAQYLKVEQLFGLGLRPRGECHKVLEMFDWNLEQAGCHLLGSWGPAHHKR
T5 sequence (Q9P289 whole entry): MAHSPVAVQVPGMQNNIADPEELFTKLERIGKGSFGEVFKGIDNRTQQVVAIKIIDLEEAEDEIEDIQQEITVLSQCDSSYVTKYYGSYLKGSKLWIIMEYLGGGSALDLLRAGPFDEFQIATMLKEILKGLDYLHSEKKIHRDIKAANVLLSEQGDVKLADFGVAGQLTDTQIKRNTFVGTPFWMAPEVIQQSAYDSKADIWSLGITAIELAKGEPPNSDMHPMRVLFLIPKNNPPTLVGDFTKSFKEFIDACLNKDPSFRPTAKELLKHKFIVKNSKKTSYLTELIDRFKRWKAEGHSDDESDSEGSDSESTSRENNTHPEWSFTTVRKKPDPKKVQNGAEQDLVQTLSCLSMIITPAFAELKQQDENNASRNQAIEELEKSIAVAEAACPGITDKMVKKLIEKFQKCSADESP
Sequence of RAF1 (P04049 whole entry): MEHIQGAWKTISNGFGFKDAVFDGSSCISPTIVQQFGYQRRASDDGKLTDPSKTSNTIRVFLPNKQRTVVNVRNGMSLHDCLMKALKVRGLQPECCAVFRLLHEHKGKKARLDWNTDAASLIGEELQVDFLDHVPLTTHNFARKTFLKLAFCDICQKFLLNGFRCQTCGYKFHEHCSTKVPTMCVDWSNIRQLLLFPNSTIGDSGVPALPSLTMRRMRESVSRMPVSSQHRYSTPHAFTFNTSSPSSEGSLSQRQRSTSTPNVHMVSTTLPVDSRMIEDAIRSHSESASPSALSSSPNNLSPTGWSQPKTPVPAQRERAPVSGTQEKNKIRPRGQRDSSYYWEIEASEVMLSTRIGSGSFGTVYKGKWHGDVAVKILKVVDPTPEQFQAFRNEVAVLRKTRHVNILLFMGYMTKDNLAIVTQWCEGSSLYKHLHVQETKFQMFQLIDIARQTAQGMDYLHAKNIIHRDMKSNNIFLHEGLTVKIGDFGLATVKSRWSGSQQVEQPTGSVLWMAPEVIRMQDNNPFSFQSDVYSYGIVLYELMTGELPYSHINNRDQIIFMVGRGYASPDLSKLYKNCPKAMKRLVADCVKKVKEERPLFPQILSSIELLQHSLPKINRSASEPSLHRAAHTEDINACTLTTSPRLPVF
Sequence of BTK (Q06187 whole entry): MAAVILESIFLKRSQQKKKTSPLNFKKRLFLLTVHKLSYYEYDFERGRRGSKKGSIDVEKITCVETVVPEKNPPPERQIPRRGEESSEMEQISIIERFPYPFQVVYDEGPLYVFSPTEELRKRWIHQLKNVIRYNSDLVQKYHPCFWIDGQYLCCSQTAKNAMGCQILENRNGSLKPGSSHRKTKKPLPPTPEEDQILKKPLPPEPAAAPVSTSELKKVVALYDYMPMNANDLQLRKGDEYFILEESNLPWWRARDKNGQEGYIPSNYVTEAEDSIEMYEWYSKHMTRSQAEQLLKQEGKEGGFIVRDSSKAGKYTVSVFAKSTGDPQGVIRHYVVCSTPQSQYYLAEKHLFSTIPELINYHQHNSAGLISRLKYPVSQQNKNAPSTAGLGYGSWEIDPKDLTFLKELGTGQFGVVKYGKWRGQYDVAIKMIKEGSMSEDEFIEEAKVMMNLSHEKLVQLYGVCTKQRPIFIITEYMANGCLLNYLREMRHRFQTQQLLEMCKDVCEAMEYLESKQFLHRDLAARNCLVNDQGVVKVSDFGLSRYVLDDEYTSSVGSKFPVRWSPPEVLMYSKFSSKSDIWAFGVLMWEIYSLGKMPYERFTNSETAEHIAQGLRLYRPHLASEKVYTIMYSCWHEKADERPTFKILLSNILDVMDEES
T4 sequence (P53779 whole entry): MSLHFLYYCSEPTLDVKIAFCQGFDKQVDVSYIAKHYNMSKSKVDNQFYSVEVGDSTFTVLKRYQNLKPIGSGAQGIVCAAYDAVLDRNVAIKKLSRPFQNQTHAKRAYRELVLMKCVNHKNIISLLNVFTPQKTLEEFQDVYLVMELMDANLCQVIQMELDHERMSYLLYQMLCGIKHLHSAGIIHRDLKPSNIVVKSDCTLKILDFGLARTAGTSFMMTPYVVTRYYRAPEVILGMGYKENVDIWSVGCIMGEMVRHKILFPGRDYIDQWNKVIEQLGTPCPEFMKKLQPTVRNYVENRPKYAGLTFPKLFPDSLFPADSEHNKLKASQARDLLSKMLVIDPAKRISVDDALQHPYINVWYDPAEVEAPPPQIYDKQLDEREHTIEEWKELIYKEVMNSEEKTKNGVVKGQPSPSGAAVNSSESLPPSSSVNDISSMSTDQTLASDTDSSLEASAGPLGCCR
Sequence of PLK1 (P53350 whole entry): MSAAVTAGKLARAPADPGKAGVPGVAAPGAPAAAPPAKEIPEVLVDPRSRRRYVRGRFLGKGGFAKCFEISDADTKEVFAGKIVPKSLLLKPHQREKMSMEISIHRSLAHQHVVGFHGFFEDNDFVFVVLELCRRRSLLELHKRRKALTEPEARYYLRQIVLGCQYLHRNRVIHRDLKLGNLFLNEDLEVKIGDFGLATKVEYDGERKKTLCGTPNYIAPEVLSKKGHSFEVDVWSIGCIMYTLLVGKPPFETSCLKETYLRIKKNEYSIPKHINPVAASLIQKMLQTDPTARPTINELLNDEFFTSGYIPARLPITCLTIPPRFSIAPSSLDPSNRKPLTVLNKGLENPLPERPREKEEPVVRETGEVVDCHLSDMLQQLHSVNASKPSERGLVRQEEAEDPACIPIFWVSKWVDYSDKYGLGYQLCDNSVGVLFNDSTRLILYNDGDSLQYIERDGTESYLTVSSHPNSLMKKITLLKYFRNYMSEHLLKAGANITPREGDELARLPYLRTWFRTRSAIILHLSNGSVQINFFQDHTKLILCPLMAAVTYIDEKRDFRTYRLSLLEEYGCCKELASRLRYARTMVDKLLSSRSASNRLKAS

Compound: NC(=O)c1cccc2cn(-c3ccc([C@@H]4CCCNC4)cc3)nc12 [Niraparib]
- percent of control binding at 10 µM [1, 14]: 100%
- percent of control binding at 10 µM [2, 14]: 80%
- percent of control binding at 10 µM [3, 14]: 90%
- percent of control binding at 10 µM [4, 14]: 75%
- percent of control binding at 10 µM [5, 14]: 95%
- percent of control binding at 10 µM [6, 14]: 75%
- percent of control binding at 10 µM [7, 14]: 88%
- percent of control binding at 10 µM [8, 14]: 91%
- percent of control binding at 10 µM [9, 14]: 92%
- percent of control binding at 10 µM [10, 14]: 93%
- percent of control binding at 10 µM [11, 14]: 0.95%
- percent of control binding at 10 µM [12, 14]: 64%
- percent of control binding at 10 µM [13, 14]: 100%

Compound: O=C(c1cc(Cc2n[nH]c(=O)c3ccccc23)ccc1F)N1CCN(C(=O)C2CC2)CC1 [Olaparib]
- percent of control binding at 10 µM [1, 15]: 96%
- percent of control binding at 10 µM [2, 15]: 96%
- percent of control binding at 10 µM [3, 15]: 91%
- percent of control binding at 10 µM [4, 15]: 100%
- percent of control binding at 10 µM [5, 15]: 86%
- percent of control binding at 10 µM [6, 15]: 91%
- percent of control binding at 10 µM [7, 15]: 86%
- percent of control binding at 10 µM [8, 15]: 95%
- percent of control binding at 10 µM [9, 15]: 100%
- percent of control binding at 10 µM [10, 15]: 89%
- percent of control binding at 10 µM [11, 15]: 87%
- percent of control binding at 10 µM [12, 15]: 91%
- percent of control binding at 10 µM [13, 15]: 85%

Compound: CNCc1ccc(-c2[nH]c3cc(F)cc4c3c2CCNC4=O)cc1 [Rucaparib]
- percent of control binding at 10 µM [1, 16]: 76%
- percent of control binding at 10 µM [2, 16]: 87%
- percent of control binding at 10 µM [3, 16]: 77%
- percent of control binding at 10 µM [4, 16]: 92%
- percent of control binding at 10 µM [5, 16]: 83%
- percent of control binding at 10 µM [6, 16]: 87%
- percent of control binding at 10 µM [7, 16]: 71%
- percent of control binding at 10 µM [8, 16]: 100%
- percent of control binding at 10 µM [9, 16]: 98%
- percent of control binding at 10 µM [10, 16]: 99%
- percent of control binding at 10 µM [11, 16]: 5.4%
- percent of control binding at 10 µM [12, 16]: 67%
- percent of control binding at 10 µM [13, 16]: 66%

Compound: Cn1ncnc1[C@H]1c2n[nH]c(=O)c3cc(F)cc(c23)N[C@@H]1c1ccc(F)cc1 [Talazoparib]
- percent of control binding at 10 µM [1, 17]: 100%
- percent of control binding at 10 µM [2, 17]: 92%
- percent of control binding at 10 µM [3, 17]: 94%
- percent of control binding at 10 µM [4, 17]: 100%
- percent of control binding at 10 µM [5, 17]: 100%
- percent of control binding at 10 µM [6, 17]: 44%
- percent of control binding at 10 µM [7, 17]: 91%
- percent of control binding at 10 µM [8, 17]: 97%
- percent of control binding at 10 µM [9, 17]: 90%
- percent of control binding at 10 µM [10, 17]: 90%
- percent of control binding at 10 µM [11, 17]: 100%
- percent of control binding at 10 µM [12, 17]: 89%
- percent of control binding at 10 µM [13, 17]: 89%
